The values that follow come from patent US20240368150A1 (Hoffmann-La Roche Inc., priority 2021, published 2024).

Structures are written as SMILES. pEC50: −log10 of the molar value. Read-outs that look alike come from different tables or passages of the source.

The test system of experiment [1] is primary human T-cells.
Experiment [2] relates to primary human T-cells. In words: Proliferation assay after 5 days (CellTiter-Glo, CD3 stimulation; PBS counter screen). Format: cell-based. Conditions: T-cell, 120 h, CD3 stimulation; for Emax: 5 days, normalized to reference compound A1 as stimulator control = 100%, DMSO neutral control, read-out: Emax proliferation (% activation); for pEC50: primary human T-cells, CellTiter-Glo after 5 days, EC50 of fitted sigmoidal curve, read-out: Tcell Proliferation CD3 EC50. An outline of the steps:
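Cpds added to medium-only plates; 5 d culture. Readout CellTiter-Glo 2.0 (equal vol), RT 45 min equilibration, 15 min rocking RT, luminescence. ATP signal taken as cell number.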

For the compound `COC(=O)N1CCC(c2nc(-c3cc4c(cc3F)S(=O)(=O)C[C@H](N)C(=O)N4Cc3ccc(OC(C)C)cc3)no2)C1` (stereo partly drawn) [Example 349], the figures for the pEC50 in experiment [1] and in experiment [2] (Homo sapiens) were 5.88 and 6.40, respectively. Moreover, the Emax in experiment [2] (Homo sapiens) was 124%.

Compound `COC(F)(c1nc(-c2cc3c(cc2F)S(=O)(=O)C[C@H](N)C(=O)N3Cc2ccccc2)no1)C(F)(F)F` (stereo partly drawn) [Example 351, (3R)-3-amino-5-benzyl-8-fluoro-1,1-dioxo-7-[5-(1,2,2,2-tetrafluoro-1-methoxy-ethyl)-1,2,4-oxadiazol-3-yl]-2,3-dihydro-1λ^6,5-benzothiazepin-4-one] gave a pEC50 in experiment [1] of 6.54. Moreover, in experiment [2] (Homo sapiens), the Emax is 107% and the pEC50 is 6.95.

As to `CN(C)C(=O)c1nc(-c2cc3c(cc2F)S(=O)(=O)C[C@H](N)C(=O)N3Cc2ccc(OC(F)(F)C(F)F)cc2)no1` [Example 352, 3-[(3R)-3-amino-8-fluoro-1,1,4-trioxo-5-[[4-(1,1,2,2-tetrafluoroethoxy)phenyl]methyl]-2,3-dihydro-1λ^6,5-benzothiazepin-7-yl]-N,N-dimethyl-1,2,4-oxadiazole-5-carboxamide], the results for the pEC50 in experiment [1] and in experiment [2] (Homo sapiens) were 5.24 and 6.11, respectively. In addition, the Emax in experiment [2] (Homo sapiens) was determined as 100%.

As for `CC(C)(C)c1nc(-c2cc3c(cc2F)S(=O)(=O)C[C@H](N)C(=O)N3Cc2ccc(OCC3CCOCC3)cc2)no1` [Example 353, (3R)-3-amino-7-(5-tert-butyl-1,2,4-oxadiazol-3-yl)-8-fluoro-1,1-dioxo-5-[[4-(tetrahydropyran-4-ylmethoxy)phenyl]methyl]-2,3-dihydro-1λ^6,5-benzothiazepin-4-one], in experiment [1], the pEC50 is 5.49. Moreover, in experiment [2] (Homo sapiens), the Emax amounted to 108% and the pEC50 was 5.14.

The compound `CC(C)(C)NC(=O)c1nc(-c2ccc3c(c2)N(Cc2ccc(Cl)cc2)C(=O)[C@@H](N)CS3(=O)=O)no1` [Example 354, 3-[(3R)-3-amino-5-[(4-chlorophenyl)methyl]-1,1,4-trioxo-2,3-dihydro-1λ^6,5-benzothiazepin-7-yl]-N-tert-butyl-1,2,4-oxadiazole-5-carboxamide] gave a pEC50 in experiment [1] of under 5.00. In experiment [2] (Homo sapiens), the Emax was 77% and the pEC50 was 5.33.

As for `CC(C)(C)NC(=O)c1nc(-c2ccc3c(c2)N(Cc2ccc(OC(F)(F)F)cc2)C(=O)[C@@H](N)CS3(=O)=O)no1` [Example 355, 3-[(3R)-3-amino-1,1,4-trioxo-5-[[4-(trifluoromethoxy)phenyl]methyl]-2,3-dihydro-1λ^6,5-benzothiazepin-7-yl]-N-tert-butyl-1,2,4-oxadiazole-5-carboxamide], in experiment [1], the pEC50 was 5.22. In experiment [2] (Homo sapiens), the Emax stood at 65% and the pEC50 was 5.79.

On to `CC(C)(F)c1nc(-c2cc3c(cc2F)S(=O)(=O)C[C@H](N)C(=O)N3Cc2ccc(F)cc2)no1` [Example 358, (3R)-3-amino-8-fluoro-7-[5-(1-fluoro-1-methyl-ethyl)-1,2,4-oxadiazol-3-yl]-5-[(4-fluorophenyl)methyl]-1,1-dioxo-2,3-dihydro-1λ^6,5-benzothiazepin-4-one], for which the pEC50 in experiment [1] was 5.02. In addition, in experiment [2] (Homo sapiens), the Emax worked out at 127% and the pEC50 was 5.73.

Consider `C#CCC(C)(C)c1nnc(-c2cc3c(cc2F)S(=O)(=O)C[C@H](N)C(=O)N3Cc2ccc(C3(C(F)(F)F)N=N3)cc2)o1` [Example 359, (3R)-3-amino-7-[5-(1,1-dimethylbut-3-ynyl)-1,3,4-oxadiazol-2-yl]-8-fluoro-1,1-dioxo-5-[[4-[3-(trifluoromethyl)diazirin-3-yl]phenyl]methyl]-2,3-dihydro-1λ^6,5-benzothiazepin-4-one], for which the pEC50 in experiment [1] is 6.68. In experiment [2] (Homo sapiens), the Emax stood at 115% and the pEC50 was 7.09.

`CC(C)(C)c1nnc(-c2ccc3c(c2)N(Cc2ccc(OC(F)(F)F)cc2)C(=O)[C@@H](N)CS3(=O)=O)o1` [Example 360, (3R)-3-amino-7-(5-tert-butyl-1,3,4-oxadiazol-2-yl)-1,1-dioxo-5-[[4-(trifluoromethoxy)phenyl]methyl]-2,3-dihydro-1λ^6,5-benzothiazepin-4-one]: in experiment [1], the pEC50 was 6.04. Besides, in experiment [2] (Homo sapiens), the Emax stood at 103% and the pEC50 was 6.42.

For `CC(N)(c1nnc(-c2ccc3c(c2)N(Cc2ccc(Cl)cc2)C(=O)[C@@H](N)CS3(=O)=O)o1)C(F)(F)F` (stereo partly drawn) [Example 362, (3R)-3-amino-7-[5-(1-amino-2,2,2-trifluoro-1-methyl-ethyl)-1,3,4-oxadiazol-2-yl]-5-[(4-chlorophenyl)methyl]-1,1-dioxo-2,3-dihydro-1λ^6,5-benzothiazepin-4-one], the pEC50 in experiment [1] was 5.76. In experiment [2] (Homo sapiens), the Emax came out at 84% and the pEC50 was 5.43.

Turning to `N[C@H]1CS(=O)(=O)c2ccc(-c3nnc(C(F)(F)C(F)(F)F)o3)cc2N(Cc2ccc(Cl)cc2)C1=O` [Example 363, (3R)-3-amino-5-[(4-chlorophenyl)methyl]-1,1-dioxo-7-[5-(1,1,2,2,2-pentafluoroethyl)-1,3,4-oxadiazol-2-yl]-2,3-dihydro-1λ^6,5-benzothiazepin-4-one], the pEC50 in experiment [1] was 5.66; in experiment [2] it was under 5.00. Also, the Emax in experiment [2] (Homo sapiens) was found to be 50%.

In experiment [1], `CC(C)(C#N)c1nnc(-c2ccc3c(c2)N(Cc2ccc(Cl)cc2)C(=O)[C@@H](N)CS3(=O)=O)o1` [Example 364, 2-[5-[(3R)-3-amino-5-[(4-chlorophenyl)methyl]-1,1,4-trioxo-2,3-dihydro-1λ^6,5-benzothiazepin-7-yl]-1,3,4-oxadiazol-2-yl]-2-methyl-propanenitrile] had a pEC50 of 6.01. In experiment [2] (Homo sapiens), the Emax amounted to 108% and the pEC50 is 6.03.

The compound `COC1(c2nnc(-c3ccc4c(c3)N(Cc3ccc(Cl)cc3)C(=O)[C@@H](N)CS4(=O)=O)o2)CC1` [Example 365, (3R)-3-amino-5-[(4-chlorophenyl)methyl]-7-[5-(1-methoxycyclopropyl)-1,3,4-oxadiazol-2-yl]-1,1-dioxo-2,3-dihydro-1λ^6,5-benzothiazepin-4-one] showed a pEC50 in experiment [1] of 6.02. In experiment [2] (Homo sapiens), the Emax was determined as 142% and the pEC50 was 6.16.

`N[C@H]1CS(=O)(=O)c2ccc(-c3nnc(C4(C(F)(F)F)CC4)o3)cc2N(Cc2ccc(Cl)cc2)C1=O` [Example 366, (3R)-3-amino-5-[(4-chlorophenyl)methyl]-1,1-dioxo-7-[5-[1-(trifluoromethyl)cyclopropyl]-1,3,4-oxadiazol-2-yl]-2,3-dihydro-1λ^6,5-benzothiazepin-4-one] showed a pEC50 in experiment [1] of 6.23. In addition, in experiment [2] (Homo sapiens), the Emax came out at 106% and the pEC50 is 6.17.

For the compound `CC(C#N)c1nnc(-c2ccc3c(c2)N(Cc2ccc(Cl)cc2)C(=O)[C@@H](N)CS3(=O)=O)o1` (stereo partly drawn) [Example 367, 2-[5-[(3R)-3-amino-5-[(4-chlorophenyl)methyl]-1,1,4-trioxo-2,3-dihydro-1λ^6,5-benzothiazepin-7-yl]-1,3,4-oxadiazol-2-yl]propanenitrile], in experiment [1], the pEC50 is 6.24. In experiment [2] (Homo sapiens), the Emax turned out to be 87% and the pEC50 was 5.43.

In experiment [1], `COC(C)(C)c1nnc(-c2ccc3c(c2)N(Cc2ccc(Cl)cc2)C(=O)[C@@H](N)CS3(=O)=O)o1` [Example 368] showed a pEC50 of 5.26. In experiment [2] (Homo sapiens), the Emax came out at 103% and the pEC50 is 5.18.

`N[C@H]1CS(=O)(=O)c2ccc(-c3nnc(C(F)C(F)(F)F)o3)cc2N(Cc2ccc(Cl)cc2)C1=O` (stereo partly drawn) [Example 369, (3R)-3-amino-5-[(4-chlorophenyl)methyl]-1,1-dioxo-7-[5-(1,2,2,2-tetrafluoroethyl)-1,3,4-oxadiazol-2-yl]-2,3-dihydro-1λ^6,5-benzothiazepin-4-one]: the pEC50 in experiment [1] is 5.77; in experiment [2] it was 6.33. Also, the Emax in experiment [2] (Homo sapiens) came out at 114%.

Consider `COC(C#N)c1nnc(-c2ccc3c(c2)N(Cc2ccc(Cl)cc2)C(=O)[C@@H](N)CS3(=O)=O)o1` (stereo partly drawn) [Example 370, 2-[5-[(3R)-3-amino-5-[(4-chlorophenyl)methyl]-1,1,4-trioxo-2,3-dihydro-1λ^6,5-benzothiazepin-7-yl]-1,3,4-oxadiazol-2-yl]-2-methoxy-acetonitrile], for which the values for the pEC50 in experiment [1] and in experiment [2] (Homo sapiens) were 5.29 and under 5.00, respectively. For the same compound, the Emax in experiment [2] (Homo sapiens) was 31%.

Consider `COC1(c2nnc(-c3ccc4c(c3)N(Cc3ccc(Cl)cc3)C(=O)[C@@H](N)CS4(=O)=O)o2)CCOCC1` [Example 371, (3R)-3-amino-5-[(4-chlorophenyl)methyl]-7-[5-(4-methoxytetrahydropyran-4-yl)-1,3,4-oxadiazol-2-yl]-1,1-dioxo-2,3-dihydro-1λ^6,5-benzothiazepin-4-one], for which the pEC50 in experiment [1] is under 5.00. In experiment [2] (Homo sapiens), the Emax was found to be 84% and the pEC50 was 5.56.

For `COC(C)(c1nnc(-c2ccc3c(c2)N(Cc2ccc(Cl)cc2)C(=O)[C@@H](N)CS3(=O)=O)o1)C(F)(F)F` (stereo partly drawn) [Example 372, (3R)-3-amino-5-[(4-chlorophenyl)methyl]-1,1-dioxo-7-[5-(2,2,2-trifluoro-1-methoxy-1-methyl-ethyl)-1,3,4-oxadiazol-2-yl]-2,3-dihydro-1λ^6,5-benzothiazepin-4-one], the pEC50 in experiment [1] was 5.89. In addition, in experiment [2] (Homo sapiens), the Emax was 118% and the pEC50 was 6.43.

Consider `N[C@H]1CS(=O)(=O)c2ccc(-c3nnc(-c4ccccc4)o3)cc2N(Cc2ccc(Cl)cc2)C1=O` [Example 374, (3R)-3-amino-5-[(4-chlorophenyl)methyl]-1,1-dioxo-7-(5-phenyl-1,3,4-oxadiazol-2-yl)-2,3-dihydro-1λ^6,5-benzothiazepin-4-one], for which the pEC50 was 4.82 in experiment [1] and under 5.00 in experiment [2] (Homo sapiens). Moreover, the Emax in experiment [2] (Homo sapiens) is 52%.
